In US20070203133A1, “Substituted 5,12-diaza-benzoanthracene analogues” (Neurogen Corporation, priority 2004, published 2007):

target: T1, human capsaicin receptor (Homo sapiens, UniProt Q8NER1); assay: Calcium mobilization assay, determination of antagonist activity; assay type: cell-based; conditions: 50% decrease in the fluorescence response of cells expressing human capsaicin receptor exposed to capsaicin
T1 construct: transfected with the pBK-CMV expression construct encoding the full length human capsaicin receptor; expressed in transfected cells; host or cells: HEK293, stably transfected with the pBK-CMV construct
Procedure: A cDNA encoding full length human capsaicin receptor (SEQ ID NO:1, 2 or 3 of U.S. Pat. No. 6,482,611) is subcloned in the plasmid pBK-CMV (Stratagene, La Jolla, Calif.) for recombinant expression in mammalian cells.
Human embryonic kidney (HEK293) cells are transfected with the pBK-CMV expression construct encoding the full length human capsaicin receptor using standard methods. The transfected cells are selected for two weeks in media containing G418 (400 μg/ml) to obtain a pool of stably transfected cells. Independent clones are isolated from this pool by limiting dilution to obtain clonal stable cell lines for use in subsequent experiments.
Cells transfected with expression plasmids (as described in Example 4) and thereby expressing human capsaicin receptor are seeded and grown to 70-90% confluency in FALCON black-walled, clear-bottomed 96-well plates (#3904, BECTON-DICKINSON, Franklin Lakes, N.J.). The culture medium is emptied from the 96 well plates and FLUO-3 AM calcium sensitive dye (Molecular Probes, Eugene, Oreg.) is added to each well (dye solution: 1 mg FLUO-3 AM, 440 μL DMSO and 440 μl 20% pluronic acid in DMSO, diluted 1:250 in Krebs-Ringer HEPES (KRH) buffer (25 mM HEPES, 5 mM KCl, 0.96 mM NaH2PO4, 1 mM MgSO4, 2 mM CaCl2, 5 mM glucose, 1 mM probenecid, pH 7.4), 50 μL diluted solution per well). Plates are covered with aluminum foil and incubated at 37° C. for 1-2 hours in an environment containing 5% CO2. After the incubation, the dye is emptied from the plates, and the cells are washed once with KRH buffer, and resuspended in KRH buffer.
To measure the ability of a test compound to agonize or antagonize a calcium mobilization response in cells expressing capsaicin receptors to capsaicin or other vanilloid agonist, the EC50 of the agonist capsaicin is first determined. An additional 20 μl of KRH buffer and 1 μl DMSO is added to each well of cells, prepared as described above. 100 μl capsaicin in KRH buffer is automatically transferred by the FLIPR instrument to each well. Capsaicin-induced calcium mobilization is monitored using either FLUOROSKAN ASCENT (Labsystems; Franklin, Mass.) or FLIPR (fluorometric imaging plate reader system; Molecular Devices, Sunnyvale, Calif.) instruments. Data obtained between 30 and 60 seconds after agonist application are used to generate an 8-point concentration response curve, with final capsaicin concentrations of 1 nM to 3 μM. KALEIDAGRAPH software (Synergy Software, Reading, Pa.) is used to fit the data to the equation: y=a*(1/(1+(b/x)^c)) to determine the 50% excitatory concentration (EC50) for the response. In this equation, y is the maximum fluorescence signal, x is the concentration of the agonist or antagonist (in this case, capsaicin), a is the Emax, b corresponds to the EC50 value and c is the Hill coefficient. Determination of Agonist Activity
Test compounds are dissolved in DMSO, diluted in 20 μl KRH buffer so that the final concentration of test compounds in the assay well is between 1 μM and 5 μM, and added to cells prepared as described above. The 96 well plates containing prepared cells and test compounds are incubated in the dark, at room temperature for 0.5 to 6 hours. It is important that the incubation not continue beyond 6 hours. Just prior to determining the fluorescence response, 100 μl capsaicin in KRH buffer at twice the EC50 concentration determined as described above is automatically added by the FLIPR instrument to each well of the 96 well plate for a final sample volume of 200 μl and a final capsaicin concentration equal to the EC50. The final concentration of test compounds in the assay wells is between 1 μM and 5 μM. […] The concentration of antagonist required to provide a 50% decrease, relative to the response observed in the presence of capsaicin and without antagonist, is the IC50 for the antagonist, and is preferably below 1 micromolar, 100 nanomolar, 10 nanomolar or 1 nanomolar.

T1 sequence (Q8NER1 whole entry): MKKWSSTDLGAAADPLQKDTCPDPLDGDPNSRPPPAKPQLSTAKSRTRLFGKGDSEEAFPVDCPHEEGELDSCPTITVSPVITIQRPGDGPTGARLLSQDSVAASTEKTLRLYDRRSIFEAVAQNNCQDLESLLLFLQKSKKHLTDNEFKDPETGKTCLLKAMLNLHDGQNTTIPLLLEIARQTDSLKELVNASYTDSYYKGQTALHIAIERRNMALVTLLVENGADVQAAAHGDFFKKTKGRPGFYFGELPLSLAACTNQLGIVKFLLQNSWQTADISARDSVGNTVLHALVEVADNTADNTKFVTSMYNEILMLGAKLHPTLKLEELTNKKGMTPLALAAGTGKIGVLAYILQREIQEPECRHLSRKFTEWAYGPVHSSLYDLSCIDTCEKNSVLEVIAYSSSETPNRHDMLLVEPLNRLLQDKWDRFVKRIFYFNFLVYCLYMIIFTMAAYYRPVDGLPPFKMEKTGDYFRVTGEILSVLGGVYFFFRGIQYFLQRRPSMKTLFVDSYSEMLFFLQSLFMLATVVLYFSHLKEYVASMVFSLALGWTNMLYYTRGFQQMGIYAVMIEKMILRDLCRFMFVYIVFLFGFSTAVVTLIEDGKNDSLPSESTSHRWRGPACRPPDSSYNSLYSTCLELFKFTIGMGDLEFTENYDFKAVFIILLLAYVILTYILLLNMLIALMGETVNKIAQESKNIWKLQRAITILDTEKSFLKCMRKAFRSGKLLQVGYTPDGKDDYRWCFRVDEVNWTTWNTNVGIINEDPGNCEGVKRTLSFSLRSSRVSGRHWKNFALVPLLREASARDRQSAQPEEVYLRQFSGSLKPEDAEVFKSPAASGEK

IC50 [nM]	SMILES
≤ 1000	OCc1nc2nc(-c3ncccc3C(F)(F)F)ccc2c2c1Oc1cc(C(F)(F)F)ccc1N2 [Compound 7, [9-Trifluoromethyl-3-(3-trifluoromethyl-pyridin-2-yl)-12H-7-oxa-4,5,12-triaza-benzo[a]anthracen-6-yl]-methanol]
≤ 1000	FC(F)(F)c1ccc2c(c1)Oc1cnc3nc(-c4ncccc4C(F)(F)F)ccc3c1N2 [Compound 11, 9-Trifluoromethyl-3-(3-trifluoromethyl-pyridin-2-yl)-12H-7-oxa-4,5,12-triaza-benzo[a]anthracene]
≤ 1000	COCc1nc2nc(-c3ncccc3C(F)(F)F)ccc2c2c1Oc1cc(F)ccc1N2 [Compound 13, 9-Fluoro-6-methoxymethyl-3-(3-trifluoromethyl-pyridin-2-yl)-12H-7-oxa-4,5,12-triaza-benzo[a]anthracene]
≤ 1000	COCc1nc2nc(-c3ncccc3C(F)(F)F)ccc2c2c1C(O)c1cc(Br)ccc1N2 (centres unmarked) [Compound 17, 9-Bromo-6-methoxymethyl-3-(3-trifluoromethyl-pyridin-2-yl)-7,12-dihydro-4,5,12-triaza-benzo[a]anthracen-7-ol]
≤ 1000	COCc1nc2nc(-c3ncccc3C(F)(F)F)ccc2c2c1Oc1cc(C(C)(C)C)ccc1N2 [Compound 5, 9-tert-Butyl-6-methoxymethyl-3-(3-trifluoromethyl-pyridin-2-yl)-12H-7-oxa-4,5,12-triaza-benzo[a]anthracene]
≤ 1000	COCc1nc2nc(-c3ncccc3C(F)(F)F)ccc2c2[nH]c3ccc(Cl)cc3c(=O)c12 [Compound 15, 9-Chloro-6-methoxymethyl-3-(3-trifluoromethyl-pyridin-2-yl)-12H-4,5,12-triaza-benzo[a]anthracen-7-one]
≤ 1000	C[C@@H]1CN(Cc2nc3nc(-c4ncccc4C(F)(F)F)ccc3c3c2Oc2cc(C(F)(F)F)ccc2N3)C[C@H](C)O1 [Compound 8, 6-(2,6-Dimethyl-morpholin-4-ylmethyl)-9-trifluoromethyl-3-(3-trifluoromethyl-pyridin-2-yl)-12H-7-oxa-4,5,12-triaza-benzo[a]anthracene (cis)]
≤ 1000	COCc1nc2nc(-c3ncccc3C(F)(F)F)ccc2c2c1Oc1cc(C(F)(F)F)ccc1N2 [Compound 1, 6-Methoxymethyl-9-trifluoromethyl-3-(3-trifluoromethyl-pyridin-2-yl)-12H-7-oxa-4,5,12-triaza-benzo[a]anthracene]
≤ 1000	Cc1nc2nc(-c3ncccc3C(F)(F)F)ccc2c2c1Oc1cc(C(F)(F)F)ccc1N2 [Compound 10, 6-Methyl-9-trifluoromethyl-3-(3-trifluoromethyl-pyridin-2-yl)-12H-7-oxa-4,5,12-triaza-benzo[a]anthracene]
≤ 1000	COCc1nc2nc(-c3ncccc3C(F)(F)F)ccc2c2c1Oc1ccc(Cl)cc1N2 [Compound 3, 10-Chloro-6-methoxymethyl-3-(3-trifluoromethyl-pyridin-2-yl)-12H-7-oxa-4,5,12-triaza-benzo[a]anthracene]
≤ 1000	COCc1nc2nc(-c3ncccc3C(F)(F)F)ccc2c2[nH]c3ccc(Br)cc3c(=O)c12 [Compound 16, 9-Bromo-6-methoxymethyl-3-(3-trifluoromethyl-pyridin-2-yl)-12H-4,5,12-triaza-benzo[a]anthracen-7-one]
≤ 1000	CCCN(CCC)Cc1nc2nc(-c3ncccc3C(F)(F)F)ccc2c2c1Oc1cc(C(F)(F)F)ccc1N2 [Compound 9, Dipropyl-[9-trifluoromethyl-3-(3-trifluoromethyl-pyridin-2-yl)-12H-7-oxa-4,5,12-triaza-benzo[a]anthracen-6-ylmethyl]-amine]
≤ 1000	COCc1nc2nc(-c3ncccc3C(F)(F)F)ccc2c2c1Oc1cc(S(C)(=O)=O)ccc1N2 [Compound 4, 9-Methanesulfonyl-6-methoxymethyl-3-(3-trifluoromethyl-pyridin-2-yl)-12H-7-oxa-4,5,12-triaza-benzo[a]anthracene]
≤ 1000	FC(F)(F)c1ccc2c(c1)Oc1c(Cl)nc3nc(-c4ncccc4C(F)(F)F)ccc3c1N2 [Compound 6, 6-Chloro-9-trifluoromethyl-3-(3-trifluoromethyl-pyridin-2-yl)-12H-7-oxa-4,5,12-triaza-benzo[a]anthracene]
≤ 1000	Cc1nc2cc(-c3ncccc3C(F)(F)F)ccc2c2c1Oc1ccccc1N2 [Compound 14, 6-Methyl-3-(3-trifluoromethyl-pyridin-2-yl)-12H-7-oxa-5,12-diaza-benzo[a]anthracene]

SMILES	IC50 [nM]
CC(C)COCc1nc2nc(-c3ncccc3C(F)(F)F)ccc2c2c1Oc1cc(C(F)(F)F)ccc1N2 [Compound 12, 6-Isobutoxymethyl-9-trifluoromethyl-3-(3-trifluoromethyl-pyridin-2-yl)-12H-7-oxa-4,5,12-triaza-benzo[a]anthracene]	≤ 1000

target: VR (Homo sapiens, UniProt Q8NER1); assay: not given; conditions: binds to VR with no more than moderate affinity; typical value; cited from earlier work
Sequence (Q8NER1 whole entry): as above

SMILES	Ki [nM]
Cl.Cl.Cl.Cl.Cl.Cl.N.N.N.N.N.N.N.N.N.N.N.N.N.N.[O-2].[O-2].[Ru+3].[Ru+3].[Ru+4] [ruthenium red]	≥ 140000
